These results are taken from patent publication US7923563B2, “Amorphous object of cinnamide compound” (Eisai R&D Management Co., Ltd., priority 2004, dated 2011).

Data set [1] can be described thus: Solubility test of the crystalline compound (1) and the amorphous compound (1) (apparent solubility in buffer, HPLC). In kind it is physicochemical. Particulars: room temperature, 30 minutes standing after ultrasonication. How it is done:
An excess amount of each sample was added to 0.5 mL of the following each test solution, which was then dispersed and dissolved by a ultrasonication operation for several minutes (about 3 minutes). After allowing to stand at room temperature for 30 minutes, the supernatant was separated by a centrifugation operation; the sample concentration in the supernatant as determined by an HPLC method was defined as an apparent solubility in each test solution.
pH 5: Diluted Mcllvaine buffer solution (Kanto Chemical Co. Inc.)
pH 7: GIBCO™ (Dulbecco's phosphate-buffered saline, Invitrogen Corporation)

The nature of data set [2]: Hygroscopicity test of the amorphous compound (1) (microbalance, weight change vs relative humidity). In kind it is physicochemical. Conditions: 25° C., relative humidities of 5% to 90%; FIG. 3. How it is done: The hygroscopicity of the amorphous substance was evaluated using a microbalance (MB300W, VTI Corporation, USA). A sample placed in a glass holder was suspended in a device adjusted at 25° C., and a change in the weight thereof was followed over relative humidities of 5% to 90%. The sample weight was measured at measuring points (of the relative humidities) with an interval of 2 minutes; the weight at the time point of the amount of change reaching within 0.2% was defined as the final value.

Setting [3] is: pH 5 buffer (diluted McIlvaine buffer solution).
Setting [4] is: pH 7 buffer (Dulbecco's phosphate-buffered saline).

Consider `COc1cc(/C=C2\CCCN([C@@H](C)c3ccc(F)cc3)C2=O)ccc1-n1cnc(C)c1` [Amorphous compound (1), (3E)-1-[(1S)-1-(4-fluorophenyl)ethyl]-3-[3-methoxy-4-(4-methyl-1H-imidazol-1-yl)benzylidene]piperidin-2-one], for which the Apparent solubilites came out at 0.225 mg/mL in data set [1] (setting [3]) and 0.011 mg/mL in data set [1] (setting [4]). The “Hygroscopicity (weight change over relative humidity)” value in data set [2] was “low hygroscopicity”.

As for `COc1cc(/C=C2\CCCN([C@@H](C)c3ccc(F)cc3)C2=O)ccc1-n1cnc(C)c1` [Crystalline compound (1), (3E)-1-[(1S)-1-(4-fluorophenyl)ethyl]-3-[3-methoxy-4-(4-methyl-1H-imidazol-1-yl)benzylidene]piperidin-2-one], the Apparent solubilites in data set [1] (setting [3]) amounted to 0.077 mg/mL; in data set [1] (setting [4]), 0.003 mg/mL.
